According to patent publication US11946094B2, “Combination therapies and methods of use thereof” (Augusta University Research Institute, Inc., priority 2017, dated 2024):
Where a name gives a salt, the structure may show the parent alone. Read-outs that look alike come from different tables or passages of the source.

What was measured:
OVCAR-8 cells [1] = test: Drug titration (GI50) with S100A11 siRNA knockdown versus sham control; assay type: cell-based; details: serial dilution of drug, three replicates
Method: Statistical analyses were performed using the R language and environment for statistical computing (R version 3.3.1; R Foundation for Statistical Computing) and Microsoft Excel. Student's T-test (two-tailed, unpaired) was used to calculate p-values for confirmation of drug effect. GI50 values were calculated using a four-parameter logistic function to obtain a classical “s” curve for drug titrations using SigmaPlot (Systat Software, San Jose, CA). Heatmaps were created using the R package “pheatmap”. Clustering was done with WPGMA hierarchical clustering. QIAGEN's Ingenuity Pathway Analysis (IPA®, QIAGEN Redwood City) was utilized for assessment of network and pathway contributions of top genes identified using the NCI-60 correlations.
An important measure of synergism is the dosage reduction of a therapeutic compound by another agent. Titration screening with several compounds was performed to compare growth curves with and without knockdown of S100A11 or KLHL5. […] KLHL5 also was synergistic with other cell cycle inhibitors and PI3K-AKT-mTOR inhibitors. Titration curves and calculation of GI50 were performed for twenty-four compounds.

OVCAR-8 cells [2] = test: Drug-siRNA combination screen: 346-compound anticancer library at 100 nM, CCK-8 viability; details: for number of genes (of 18) whose knockdown synergizes with the drug: siRNA knockdown
AB1-HA tumor model = details: CTX treatment at Day 9; cited from earlier work
[3] = OVCAR-8, drug 100 nM plus siRNA knockdown of each of 18 genes, distance VAB−VA×VB in SD, single gene contributes at most +5 / −5, negative = synergy, positive = antagonism
[4] = OVCAR-8, drug 100 nM, panel of 18 siRNA knockdowns

With O=C(/C=C/c1cccc(S(=O)(=O)Nc2ccccc2)c1)NO [Belinostat] as the molecule, how does the “dose reduction of GI50 value by S100A11 siRNA versus sham control” value (OVCAR-8 cells [1]) read?
The value was 5.56 fold.

What about the “Score (sum of observed SD values for 18 genes)” value (OVCAR-8 cells [2]; [3]) of the same molecule?
Its value is −20.81 SD.

And the “synergy / antagonism of drug with gene knockdowns, in words” value (“synergy / antagonism of drug” below) (OVCAR-8 cells [2]; [4])?
The value was “mostly synergistic”.

What does the source list for Cn1cc(CNCC2CCN(c3ncc(C(=O)NO)cn3)CC2)c2ccccc21 [JNJ-26481585, Quisinostat]?
dose reduction of GI50 value by S100A11 siRNA versus sham control (OVCAR-8 cells [1]): 5.53 fold; Score (sum of observed SD values for 18 genes) (OVCAR-8 cells [2]; [3]): −2.31 SD

For CCn1c(=O)c(-c2cc[nH]n2)cc2c(C)nc(N)nc21 [XL765], which “Score (sum of observed SD values for 18 genes)” value (OVCAR-8 cells [2]; [3]) is on record?
The value was −10.06 SD.

With O=C(NC1CCNCC1)c1n[nH]cc1NC(=O)c1c(Cl)cccc1Cl [AT7519] as the molecule, how does the “Score (sum of observed SD values for 18 genes)” value (OVCAR-8 cells [2]; [3]) read?
Its value is −24.02 SD.

For CC[C@H](Nc1ncnc2[nH]cnc12)c1nc2cccc(F)c2c(=O)n1-c1ccccc1 [CAL-101], which “Score (sum of observed SD values for 18 genes)” value (OVCAR-8 cells [2]; [3]) is on record?
The value was −27.89 SD.

Which results are given for CC(=O)NCC(=O)N1[C@@H]2CC[C@H]1c1ccc(Nc3ncc(C(F)(F)F)c(NC4CCC4)n3)cc12 [PF-03814735]?
Score (sum of observed SD values for 18 genes) (OVCAR-8 cells [2]; [3]): −30.13 SD; synergy / antagonism of drug with gene knockdowns, in words (OVCAR-8 cells [2]; [4]): significant synergy

With O=C(NOC[C@H](O)CO)c1ccc(F)c(F)c1Nc1ccc(I)cc1F [PD0325901] as the molecule, how does the “Score (sum of observed SD values for 18 genes)” value (OVCAR-8 cells [2]; [3]) read?
Its value is −37.42 SD.

Which “Score (sum of observed SD values for 18 genes)” value (OVCAR-8 cells [2]; [3]) does the source give for C[C@@H](N)[C@H]1CC[C@H](C(=O)Nc2ccncc2)CC1.Cl.Cl [Y-27632 2HCI] here?
Its value is −28.91 SD.

With CC1(C)CCC(c2ccc(Cl)cc2)=C(CN2CCN(c3ccc(C(=O)NS(=O)(=O)c4ccc(N[C@H](CCN5CCOCC5)CSc5ccccc5)c(S(=O)(=O)C(F)(F)F)c4)cc3)CC2)C1 [Navitoclax] as the molecule, how does the “Score (sum of observed SD values for 18 genes)” value (OVCAR-8 cells [2]; [3]) read?
Its value is −13.79 SD.

With CC(O)(CS(=O)(=O)c1ccc(F)cc1)C(=O)Nc1ccc(C#N)c(C(F)(F)F)c1 (centres unmarked) [Bicalutamide] as the molecule, how does the “Score (sum of observed SD values for 18 genes)” value (OVCAR-8 cells [2]; [3]) read?
Its value is −23.24 SD.

Which “Score (sum of observed SD values for 18 genes)” value (OVCAR-8 cells [2]; [3]) does the source give for COC(=O)Nc1nc2ccc(C(=O)c3cccs3)cc2[nH]1 [Nocodazole] here?
Its value is −7.78 SD.

For Cc1c[nH]c(-c2cnc(NCCNc3ccc(C#N)cn3)nc2-c2ccc(Cl)cc2Cl)n1 [CHIR-99021], which “Score (sum of observed SD values for 18 genes)” value (OVCAR-8 cells [2]; [3]) is on record?
Its value is −2.4 SD.

For S=C(NCc1ccc2c(c1)OCO2)N1CCN(c2ncnc3c2oc2ccccc23)CC1 [Amuvatinib], which “Score (sum of observed SD values for 18 genes)” value (OVCAR-8 cells [2]; [3]) is on record?
Its value is 12.37 SD.

For CC1(C)CNc2cc(NC(=O)c3cccnc3NCc3ccncc3)ccc21 [Motesanib Diphosphate], which “Score (sum of observed SD values for 18 genes)” value (OVCAR-8 cells [2]; [3]) is on record?
Its value is −12.16 SD.

With COc1cc2c(Oc3ccc4[nH]c(C)cc4c3F)ncnc2cc1OCCCN1CCCC1 [Cediranib] as the molecule, how does the “Score (sum of observed SD values for 18 genes)” value (OVCAR-8 cells [2]; [3]) read?
The value was −11.55 SD.

With COc1ccc(-c2ccc3c(N4CCOCC4)nc(N4C[C@@H](C)O[C@@H](C)C4)nc3n2)cc1CO [Ku-0063794] as the molecule, how does the “Score (sum of observed SD values for 18 genes)” value (OVCAR-8 cells [2]; [3]) read?
The value was −41.94 SD.

For AZ 3146, which “Score (sum of observed SD values for 18 genes)” value (OVCAR-8 cells [2]; [3]) is on record?
Its value is −22.56 SD.

With NC(=O)c1ccc(I)c([N+](=O)[O-])c1 [Iniparib] as the molecule, how does the “Score (sum of observed SD values for 18 genes)” value (OVCAR-8 cells [2]; [3]) read?
Its value is −21.58 SD.

With C[S+]([O-])c1ccc(-c2nc(-c3ccc(F)cc3)c(-c3ccncc3)[nH]2)cc1 (centres unmarked) [SB 203580] as the molecule, how does the “Score (sum of observed SD values for 18 genes)” value (OVCAR-8 cells [2]; [3]) read?
The value was −40.85 SD.

What about the “number of genes (of 18) whose knockdown synergizes with the drug” value (OVCAR-8 cells [2]; OVCAR-8, drug 100 nM) of the same molecule?
Its value is 9 genes.

For NC(=O)Nc1sc(-c2ccc(F)cc2)cc1C(N)=O [TPCA-1], which “Score (sum of observed SD values for 18 genes)” value (OVCAR-8 cells [2]; [3]) is on record?
The value was 4.7 SD.

For CN1CC[C@H](c2c(O)cc(O)c3c(=O)cc(-c4ccccc4Cl)oc23)[C@H](O)C1 [Flavopiridol], which “Score (sum of observed SD values for 18 genes)” value (OVCAR-8 cells [2]; [3]) is on record?
The value was −23.63 SD.

For CCOc1cc2ncc(C#N)c(Nc3ccc(OCc4ccccn4)c(Cl)c3)c2cc1NC(=O)/C=C/CN(C)C [Neratinib], which “Score (sum of observed SD values for 18 genes)” value (OVCAR-8 cells [2]) is on record?
Its value is −39.86 SD.

And the “synergy / antagonism of drug” value (OVCAR-8 cells [2])?
The value was “significant synergy with nine or more genes”.

Which “Score (sum of observed SD values for 18 genes)” value (OVCAR-8 cells [2]; [3]) does the source give for c1ccc2c(-c3cnn4cc(-c5ccc(N6CCNCC6)cc5)cnc34)ccnc2c1 [LDN193189] here?
The value was −28.37 SD.

Which “Score (sum of observed SD values for 18 genes)” value (OVCAR-8 cells [2]; [3]) does the source give for Cl.O=C1CN2Cc3c(ccc(Cl)c3Cl)N=C2N1 [Anagrelide HCI] here?
Its value is −8.01 SD.

With CC[C@@H]1C(=O)N(C)c2cnc(Nc3ccc(C(=O)N[C@H]4CC[C@H](N5CCN(CC6CC6)CC5)CC4)cc3OC)nc2N1C(C)C [Volasertib] as the molecule, how does the “Score (sum of observed SD values for 18 genes)” value (OVCAR-8 cells [2]; [3]) read?
Its value is 10.79 SD.

For CC(NC(=O)c1ccccc1/N=C/c1c(O)ccc2ccccc12)c1ccccc1 (centres unmarked) [Sirtinol], which “Score (sum of observed SD values for 18 genes)” value (OVCAR-8 cells [2]; [3]) is on record?
Its value is −2.18 SD.

Which “Score (sum of observed SD values for 18 genes)” value (OVCAR-8 cells [2]; [3]) does the source give for CNC(=O)c1cc(Oc2ccc(NC(=O)Nc3ccc(Cl)c(C(F)(F)F)c3)c(F)c2)ccn1 [Regorafinib] here?
Its value is 3.75 SD.

With CC(C)[C@H](C(=O)Nc1ccc(C(=O)NO)cc1)c1ccccc1 [AR-42] as the molecule, how does the “Score (sum of observed SD values for 18 genes)” value (OVCAR-8 cells [2]; [3]) read?
Its value is −36.88 SD.

And the “synergy / antagonism of drug” value (OVCAR-8 cells [2]; [4])?
The value was “mostly synergistic”.

What about the “number of genes (of 18) whose knockdown synergizes with the drug” value (OVCAR-8 cells [2]; OVCAR-8, drug 100 nM) of the same molecule?
The value was 10 genes.

For COc1cc(Nc2ncc(F)c(Nc3ccc4c(n3)NC(=O)C(C)(C)O4)n2)cc(OC)c1OC [R406], which “Score (sum of observed SD values for 18 genes)” value (OVCAR-8 cells [2]; [3]) is on record?
Its value is −28.54 SD.

With C[C@]12CC[C@@H]3c4ccc(O)cc4CC[C@H]3[C@@H]1CCC2=O [Estrone] as the molecule, how does the “Score (sum of observed SD values for 18 genes)” value (OVCAR-8 cells [2]; [3]) read?
The value was −21.19 SD.

For CNC(=O)c1ccc(N2C(=S)N(c3ccc(C#N)c(C(F)(F)F)c3)C(=O)C2(C)C)cc1F [Enzalutamid], which “Score (sum of observed SD values for 18 genes)” value (OVCAR-8 cells [2]) is on record?
The value was −1.24 SD.

With CC(=O)Nc1nc(C)c(-c2ccc(Cl)c(S(=O)(=O)NCCO)c2)s1 [PIK-93] as the molecule, how does the “Score (sum of observed SD values for 18 genes)” value (OVCAR-8 cells [2]; [3]) read?
Its value is −20.62 SD.

For C[C@]12CCC(=O)C=C1CC[C@@H]1[C@@H]2[C@@H](O)C[C@@]2(C)[C@H]1CC[C@]2(O)C(=O)CO [Hydrocortisone], which “Score (sum of observed SD values for 18 genes)” value (OVCAR-8 cells [2]; [3]) is on record?
Its value is −21.54 SD.

Which “Score (sum of observed SD values for 18 genes)” value (OVCAR-8 cells [2]; [3]) does the source give for COC1=C(OC)C(=O)C(C/C=C(\C)CC/C=C(\C)CC/C=C(\C)CC/C=C(\C)CC/C=C(\C)CC/C=C(\C)CC/C=C(\C)CC/C=C(\C)CC/C=C(\C)CCC=C(C)C)=C(C)C1=O [Coenzyme Q10] here?
The value was −4.69 SD.

For Cn1cc(-c2ccc3nnc(C(F)(F)c4ccc5ncccc5c4)n3n2)cn1 [JNJ−38877605], which “Score (sum of observed SD values for 18 genes)” value (OVCAR-8 cells [2]; [3]) is on record?
The value was 2.72 SD.

With COc1ncc(-c2ccc3nccc(-c4ccnnc4)c3c2)cc1NS(=O)(=O)c1ccc(F)cc1F [GSK2126458] as the molecule, how does the “Score (sum of observed SD values for 18 genes)” value (OVCAR-8 cells [2]; [3]) read?
The value was −22.4 SD.

With COC1=CC(c2cc3ccccc3[nH]2)=N/C1=C\c1[nH]c(C)cc1C [Obatoclax mesylate] as the molecule, how does the “Score (sum of observed SD values for 18 genes)” value (OVCAR-8 cells [2]; [3]) read?
Its value is −10.02 SD.

For O=P1(N(CCCl)CCCl)NCCCO1 (centres unmarked) [Cyclophosphamide], which cure rate (AB1-HA tumor model) is on record?
The cure rate was 75%.

For CS(=O)(=O)c1cccc(CNc2nc(Nc3ccc4c(c3)CCC(=O)N4)ncc2C(F)(F)F)c1 [PF 573228], which “Score (sum of observed SD values for 18 genes)” value (OVCAR-8 cells [2]; [3]) is on record?
The value was −28.79 SD.

Which “number of tested HDACi highly synergistic with the gene knockdown” value (OVCAR-8 cells [2]; OVCAR-8, 12 tested HDACi) does the source give for “KLHL5: siRNA knocking down KLHL5; sense CAGGCCGCCUUGAAUUAAAtt (SEQ ID NO 23) (sense CAGGCCGCCUUGAAUUAAANN; antisense UUUAAUUCAAGGCGGCCUGNN; listed as RNA, chemistry not given here)” here?
The value was “at least six”.

And the “number of antagonistic/additive or highly antagonistic compounds with the gene knockdown” value (OVCAR-8 cells [2]; OVCAR-8, 346 compounds)?
The value was “Twelve or fewer”.

And the “number of Aurora Kinase inhibitors with significant synergy with the gene knockdown” value (OVCAR-8 cells [2]; OVCAR-8, eleven tested inhibitors)?
Its value is “eight of the eleven”.
